Earlier results in patent US20100311674A1, “PHARMACEUTICAL COMPOSITIONS WITH A MECHANISM OF MULTI-TARGET RECEPTOR RETROACTION FOR TREATING DEPRESSION” (Yu-Fen Chi, priority 2007, published 2010).

Columns and labels:
[1] = cited from earlier work
[2] = in the human body; cited from earlier work

COc1ccc(C2CNC(=O)C2)cc1OC1CCCC1 (stereo not drawn) [Rolipram]
Anti-depression function (in words) ([1]; clinical trials): obvious anti-depression function | Side effect (in words) ([1]; in vivo): severe emesis

CC1(C)[C@@H](O[C@H]2O[C@H](C(=O)O)[C@@H](O)[C@H](O)[C@H]2O[C@@H]2O[C@H](C(=O)O)[C@@H](O)[C@H](O)[C@H]2O)CC[C@]2(C)[C@H]3C(=O)C=C4[C@@H]5C[C@@](C)(C(=O)O)CC[C@]5(C)CC[C@@]4(C)[C@]3(C)CC[C@@H]12 [glycyrrhizic acid]
Conversion rate of glycyrrhizic acid to glycyrrhetinic acid [2]: ~100%
